According to patent US20200256877A1, “Microbiota Sequence Variants Of Tumor-Related Antigenic Epitopes” (ENTEROME S.A., priority 2017, published 2020):

Assays:
[1] = tested on: splenocytes (IFNγ secretion); assay: ELISPOT-IFNγ on splenocytes of BALB/c and C57BL/6 mice vaccinated with murine microbiota peptides (Example 16); format: in vivo, mouse; conditions: for T cell responses in the ELISPOT-IFNγ assay (in words): C57BL/6 mice (H2 Db B2) or BALB/c mice (H2 Ld B5), vaccination + OVA 323-339 + IFA, ex vivo stimulation with bacterial peptide; for T cell responses in the ELISPOT-IFNγ assay against the murine reference epitopes (in words): ex vivo stimulation with H2 Db M2 (C57BL/6) or H2 Ld M5 (BALB/c)
Method: Briefly, BALB/c mice and C57BL/6 mice were assigned randomly to two experimental groups for each mouse strain, each group immunized with a specific vaccination peptide (vacc-pAg) combined to a common helper peptide (OVA 323-339 peptide; sequence: ISQAVHAAHAEINEAGR; SEQ ID NO: 164) and Incomplete Freund's Adjuvant (IFA) as shown in Table 23.
(§1) The animals were immunized on day 0 (d0) with a prime injection, and on d14 with a boost injection. Each mouse was injected s.c. at tail base with 100 μL of an oil-based emulsion that contained: • 100 μg of vacc-pAg (25 μL of 4 mg/mL stock per mouse); • 150 μg of h-pAg (15 μL of 10 mg/mL stock per mouse); • 10 μL of PBS to reach a total volume of 50 μL (per mouse); • Incomplete Freund's Adjuvant (IFA) added at 1:1 (v:v) ratio (50 μL per mouse).
Seven days after the boost injection (i.e. on d21), the animals were euthanized and the spleen was harvested. Splenocytes were prepared by mechanical disruption of the organ followed by 70 μm-filtering and Ficoll density gradient purification. Spleen weight, splenocyte number and viability were immediately assessed (Table 24).
The splenocytes were used in an ELISPOT-IFNγ assay (Table X). Experimental conditions were repeated in quadruplets, using 2*10^5 total splenocytes per well, and were cultured in presence of vacc-pAg (10 μM), mice peptide homolog, positive control (1 ng/ml of Phorbol 12-myristate 13-acetate (PMA) and 500 ng/ml of Ionomycin) or medium-only to assess for their capacity to secrete IFNγ.
The commercial ELISPOT-IFNγ kit (Diaclone Kit Mujrine IFNγ ELISpot) was used following the manufacturer's instructions, and the assay was performed after about 16 h of incubation.
Spots were counted on a Grand ImmunoSpor S6 Ultimate UV Image Analyzer interfaced to the ImmunoSpot 5.4 software (CTL-Europe). Data plotting and statistical analysis were performed with the Prism-5 software (GraphPad Software Inc.).

HLA-A*0201 = molecular target: T1, HLA-A*0201 (Homo sapiens, UniProt P04439, D140Y/D185E/D98H/E176V/E277Q/G131W/G231S/I119V/I121R/I166T/I218V/L300P/L318F/N151K/N90K/P208A/P217A/Q86G/Q94H/R138H/R169H/T345S); assay: In vitro affinity of peptides to HLA-A*0201 on T2 cell line (FACS, anti-HLA-A2 labeling); format: cell-based; conditions: T2 cells; for Mean fluorescence intensity: 16 hours
T1 construct: human tumoral cell T2 which expresses the HLA-A*0201 molecule; endogenous in cells; host or cells: T2 cells (human, TAP1/2 negative)
Text: A method for in vitro testing is well-known to the skilled person. For example, the skilled person may use the experimental protocol as validated for peptides presented by HLA-A*0201 in Tourdot et al., A general strategy to enhance immunogenicity of low-affinity HLA-A2.1-associated peptides: implication in the identification of cryptic tumor epitopes. Eur J Immunol. 2000 December; 30(12):3411-21. In this context, a reference peptide, such as HIV pol 589-597, may be additionally used in the test. This enables calculation of the in vitro affinity relative to the binding observed with the reference peptide, e.g. by the following equation:
Relative affinity=concentration of each peptide inducing 20% of expression of HLA-A*0201/concentration of the reference peptide inducing 20% of expression of HLA-A*0201
(where 100% is the level of HLA-A*0201 expression detected with the reference peptide, e.g. HIV pol 589-597, for example used at a 100 μM concentration).
The experimental protocol is similar to the one that was validated for peptides presented by the HLA-A*0201 (Tourdot et al., A general strategy to enhance immunogenicity of low-affinity HLA-A2.1-associated peptides: implication in the identification of cryptic tumor epitopes. Eur J Immunol. 2000 December; 30(12):3411-21). Affinity measurement of the peptides is achieved with the human tumoral cell T2 which expresses the HLA-A*0201 molecule, but which is TAP1/2 negative and incapable of presenting endogenous peptides.
(§2) T2 cells (2.10^5 cells per well) were incubated with decreasing concentrations of peptides from 100 μM to 0.1 μM in a AIMV medium supplemented with 100 ng/μl of human β2m at 37° C. for 16 hours. Cells were then washed two times and marked with the anti-HLA-A2 antibody coupled to PE (clone BB7.2, BD Pharmagen).
The analysis was performed by FACS (Guava Easy Cyte). For each peptide concentration, the geometric mean of the labeling associated with the peptide of interest was subtracted from background noise and reported as a percentage of the geometric mean of the […] labeling obtained for the reference peptide HIV pol 589-597 at a concentration of 100 μM. The relative affinity is then determined as follows:
relative affinity=concentration of each peptide inducing 20% of expression of HLA-A*0201/concentration of the reference peptide inducing 20% of expression of HLA-A*0201.
The experimental protocol, materials and methods correspond to those outlined in Example 4, with the only difference that the above mentioned antigenic peptides were used.
as §2, with “β2 m” for “β2m”

[2] = tested on: splenocytes (IFNγ secretion); assay: ELISPOT-IFNγ on splenocytes of β/A2/DR3 mice vaccinated with IL13RA2 peptides (Example 6); format: in vivo, mouse; conditions: for Percentage of ConA-induced response (mean+/-SEM), ELISPOT-IFNγ: β/A2/DR3 mice vaccinated s.c. d0 and d14 with labelled peptide (100 μg) + HHD-DR3 helper + IFA, d21
Text: Briefly, 14 β/A2/DR3 mice were assigned randomly (based on mouse sex and age) to two experimental groups, each immunized with a specific vaccination peptide (vacc-pAg) combined to a common helper peptide (h-pAg) (as outlined in Table 7 below). The vacc-pAg were compared in couples (group 1 vs. group 2). Thereby, both native and optimized versions of a single peptide were compared in each wave.
as §1
Seven days after the boost injection (i.e. on d21), the animals were euthanized and the spleen was harvested. Splenocytes were prepared by mechanical disruption of the organ followed by 70 μm-filtering and Ficoll density gradient purification.
The splenocytes were immediately used in an ELISPOT-IFNγ assay (Table 8). Experimental conditions were repeated in quadruplets, using 2*10^5 total splenocytes per well, and were cultured in presence of vacc-pAg (10 μM), Concanavalin A (ConA, 2.5 μg/mL) or medium-only to assess for their capacity to secrete IFNγ. The commercial ELISPOT-IFNγ kit (Diaclone Kit Mujrine IFNγ ELISpot) was used following the manufacturer's instructions, and the assay was performed after about 16 h of incubation.
Spots were counted on a Grand ImmunoSpot® S6 Ultimate UV Image Analyzer interfaced to the ImmunoSpot 5.4 software (CTL-Europe). Data plotting and statistical analysis were performed with the Prism-5 software (GraphPad Software Inc.).
The data were then normalized as a number of specific spots (the average counts obtained in the ‘medium only’ condition being subtracted) per 10^6 total T cells.
The individual average values (obtained from the quadruplicates) were next used to plot the group average values (see FIG. 3A). As the functional capacity of T cells might vary from individual to individual, the data were also expressed as the percentage of the ConA response per individual (see FIG. 3B).

U87 cells = assay: In vitro cytotoxicity of CD3+ T cells from immunized mice against U87-MG cells (Example 7); format: cell-based, human; conditions: CD3+ T cells of HHD/DR3 mice immunized with labelled peptide, 72 hours co-culture with U87-MG, annexin V/DAPI
Method: Briefly, […] T cells from mice immunized with IL13RA2-H or […] were used. These cells were obtained after sorting of splenocyte from immunized mice and were placed on top of U87 cells (tumor cells expressing IL13RA2).
In more detail, CD3^+ T cells were purified from splenocytes of HHD mice immunized with IL13RA2-H (WLPFGFILI, SEQ ID NO: 1) or IL13RA2-B (FLPFGFILV, SEQ ID NO: 18). To this end, B6 β2m^ko HHD/DR3 mice were injected s.c. at tail base with 100 μL of an oil-based emulsion containing vaccination peptide plus helper peptide plus CFA (complete Freund's adjuvant), at day 0 and day 14 as described in Example 6. On d21, i.e. seven days after the boost injection, the animals were euthanized and the spleen was harvested. Splenocytes were prepared by mechanical disruption of the organ. CD3+ purification was performed using the mouse total T cells isolation kit from Miltenyi biotec using the recommended procedure. Efficient purification of cells and viability was validated by cytometry using appropriate marker for viability, CD8, CD4, CD3, and CD45. […]
72 hours after co-culture of U87-MG cells and CD3+ T cells, all cells from the wells were harvested and specific U87-MG cell death was evaluated after immunostaining of CD45 negative cells with DAPI and fluorescent annexin V followed by cytometry analysis.

[3] = molecular target: T2, HLA-A*0201 molecule on human T2 cells (human); assay: T2 cell HLA-A*0201 binding assay, flow cytometry
T2 construct: MHC class I molecule on T2 cells; also called HLA.A2.01
Method: T2 cells (2.10⁵ cells per well) were incubated with decreasing concentrations of peptides from 100 μM to 0.1 μM in a AIMV medium supplemented with 100 ng/μl of human β2m at 37° C. for 16 hours.
The analysis was performed by FACS (Guava Easy Cyte). […] The relative affinity is then determined as follows:

[4] = ex vivo re-stimulation with IL13RA2-B pAg 10 μM
[5] = ex vivo re-stimulation with IL13RA2-H pAg 10 μM

Molecule: KPSVFLLTL (Sequence variant) [H2 Ld B5, bacterial peptide from microbiota of BALB/c mice, variant of Phtf1 peptide]
- T cell responses in the ELISPOT-IFNγ assay (in words) [1]: induced improved T cell responses
- T cell responses in the ELISPOT-IFNγ assay against the murine reference epitopes (in words) [1]: also induced improved T cell responses

Molecule: LMDLSTTPL (listed as Homo sapiens) [SEQ ID NO: 59, reference compound]
- Concentration inducing 20% of expression of the HLA-A*0201 (HLA-A*0201): 12.6 µM
- Binding to HLA-A*0201 (in words) (HLA-A*0201; in vitro): bind
- Mean fluorescence intensity (HLA-A*0201; peptide at 3 μM): 0.9
- Mean fluorescence intensity (HLA-A*0201; peptide at 25 μM): 65.4
- Mean fluorescence intensity (HLA-A*0201; peptide at 100 μM): 77.6

Molecule: FLPFGFILV (sequence variant) [SEQ ID NO: 18]
- Percentage of ConA-induced response (mean+/-SEM), ELISPOT-IFNγ [2, 4]: 56.3%
- Percentage of ConA-induced response (mean+/-SEM), ELISPOT-IFNγ [2, 5]: 32.3%
- T cell responses in the ELISPOT-IFNγ assay (in words) ([2]; β/A2/DR3 mice, vaccination, compared to IL13RA2-H-vaccinated animals): induced improved T cell responses
- U87 cell lysis (in words) (U87 cells): U87 cell lysis was observed

Molecule: GAMLVGAVL (Sequence variant) [H2 Db B2, bacterial peptide from microbiota of C57BL/6 mice, variant of Stra6 peptide]
- T cell responses in the ELISPOT-IFNγ assay (in words) [1]: induced improved T cell responses
- T cell responses in the ELISPOT-IFNγ assay against the murine reference epitopes (in words) [1]: also induced improved T cell responses

Molecule: WLPFGFILI (listed as Homo sapiens) [SEQ ID NO: 1, reference compound]
- Percentage of ConA-induced response (mean+/-SEM), ELISPOT-IFNγ [2, 4]: 2.0%
- Percentage of ConA-induced response (mean+/-SEM), ELISPOT-IFNγ [2, 5]: 1.1%
- U87 cell lysis (in words) (U87 cells): not

B1: bacterial peptide IL13RA2-B (SEQ ID NO: 18, FLPFGFILV) (peptide)
peptide: FLPFGFILV
notes: 9-mer synthetic peptide; also called IL13RA2-B pAg
- concentration inducing 20% of expression of HLA-A*0201 [3]: 4.4 µM

Molecule: LMDLSTTEV (also called FOXM1-B2 pAg) [bacterial peptide FOXM1-B2 (SEQ ID NO: 75, LMDLSTTEV)]
- concentration inducing 20% of expression of HLA-A*0201 [3]: 6.7 µM

B2: human IL13RA2 reference epitope IL13RA2-H (SEQ ID NO: 1, WLPFGFILI) (peptide)
peptide: WLPFGFILI
notes: 9-mer peptide derived from human IL13RA2; also called IL13RA2-H pAg
- concentration inducing 20% of expression of HLA-A*0201 [3]: 100 µM

B3: human FOXM1 reference epitope FOXM1-H2 (SEQ ID NO: 59, LMDLSTTPL) (peptide)
peptide: LMDLSTTPL
notes: 9-mer peptide derived from human FOXM1; also called FOXM1-H2 pAg
- concentration inducing 20% of expression of HLA-A*0201 [3]: 12.6 µM
